Experiments:
[1] = test system: HIV-1NL4-3 K103N-Y181C; assay: Light assay with inhibitor-resistant HI reporter virus in MT4 7F2 cells; type: cell-based; conditions: Human immunodeficiency virus 1, read-out: EC50 (nM) MT4 7F2 cells HIV-1NL4-3 K103N-Y181C 2% FCS
Protocol: (§1) For the mixture for a 96-well MTP, 3 million MT4 7F2 cells are pelleted, suspended in 1 ml of RPMI 1640 medium without phenol red (Invitrogen, Karlsruhe, Germany)/10% FCS/10% AIM-V (Invitrogen, Karlsruhe, Germany) and incubated together with a suitable amount of the corresponding HIV-1NL4-3 reporter virus at 37° C. for 2 hours (pellet infection). Unadsorbed viruses are subsequently washed out with PBS, and the infected cells are pelleted again and suspended in 8 ml of RPMI 1640 medium without phenol red/2% or 10% FCS/10% AIM-V. 80 μl thereof are pipetted into each well of a white 96-well MTP with 20 μl of test substance in suitable dilution. To avoid edge effects, the wells on the edge of the MTP are not used for substance dilutions. The second vertical row of the MTP contains only infected cells (virus control) and the eleventh vertical row only uninfected cells (cell control), in each case in RPMI 1640 medium without phenol red/2% or 10% FCS/10% AIM-V. The other wells of the MTP contain the compounds of the invention in various concentrations starting from the third vertical row, from which the test substances are diluted in 3-fold steps up to the tenth vertical row 3^7-fold. The test substances are dissolved in DMSO, whereby the final DMSO concentration in the test mixture is 1%. The test mixtures are incubated at 37° C./5% CO2 for five days and, after the addition of 15 μl of Lu164 substrate (5 mg/ml coelenterazine dissolved in 30 μM glutathione/DMSO, 100 mM NaCl, 1M MES, 100 mM glutathione), evaluated by luminometry. The resulting values are in the region of 1 000 000 RLUs (relative light units) for the virus control and 300 to 400 RLUs for the cell control. The EC50 values of the test substances are determined as the concentration at which the virus replication measured in RLUs is 50% of the untreated infected cells.

[2] = molecular target: T1, reverse transcriptase (Human immunodeficiency virus type 1 group M subtype B, UniProt P03366); assay: Biochemical reverse transcriptase assay (Reverse Transcriptase Assay, colorimetric, Roche); conditions: read-out: IC50 (nM) RT assay
T1 construct: negative control (mixture without reverse transcriptase); purchased Roche Diagnostics GmbH, Mannheim, Germany
Protocol: The “Reverse Transcriptase Assay, colorimetric” (Roche Diagnostics GmbH, Mannheim, Germany) is used in accordance with the manufacturer's information. The test substances are dissolved in DMSO and are used in the test diluted in 5-fold steps (final DMSO concentration 1%). The resulting values of the photometric evaluation (405/492 nm) are less than 0.1 for the negative control (mixture without reverse transcriptase) and are in the region of 1.5 for the positive control (mixture without test substance). The IC50 values of the test substances are determined as the concentration of the test substance dilution at which the measured optical density is 50% of the positive control.

[3] = test system: HIV-1LAI; assay: H9 assay with wild-type HIV-1 (HIV-1LAI supernatant infection, AlamarBlue); type: cell-based; conditions: Human immunodeficiency virus 1, H9 cells, 10% FCS
Protocol: For the mixture for a 96-well MTP, 3 million PBLs are pelleted, suspended in 1 ml of RPMI 1640 medium/10% FCS and incubated together with a suitable amount of HIV-1LAI (NIH AIDS Research & Reference Reagent Program, Germantown, USA) at 37° C. for 2 hours (pellet infection). Unadsorbed viruses are subsequently washed out with PBS, and the infected cells are pelleted again and suspended in 18 ml of RPMI 1640 medium/10% FCS/interleukin-2 (40 U/ml). 180 μl thereof are pipetted into each well of a white 96-well MTP with 20 μl of test substance in suitable dilution. Alternatively, after preparation of the substance dilutions in the MTP, the HIV is pipetted in together with the cells and is not washed out again (supernatant infection). In order to avoid edge effects, the wells at the edge of the MTP are not used for substance dilutions. The second vertical row of the MTP contains only infected cells (virus control) and the eleventh vertical row only uninfected cells (cell control), in each case in RPMI 1640 medium/10% FCS/interleukin-2 (40 U/ml). The other wells of the MTP contain the compounds of the invention in various concentrations starting from the third vertical row, from which the test substances are diluted in 3-fold steps up to the tenth vertical row 3^7-fold. The test substances are dissolved in DMSO, whereby the final DMSO concentration in the test mixture is 1%. The test mixtures are incubated at 37° C./5% CO2. After 5 and 7 days, 50 μl of cell-free supernatant are removed from each well to determine the amount of p24 present by means of a p24 ELISA (HIV-1 p24^CA Antigen Capture Assay Kit, NCI-Frederick Cancer Research and Development Center, Frederick, USA). From the resulting values of the photometric evaluation (450/620 nm) the EC50 values of the test substances are determined as the concentration at which the amount of p24 is 50% of the untreated infected cells.
Alternatively, H9 cells (ATCC, Wesel, Germany) are employed instead of PBLs for testing the test substances. H9 cells are incubated in RPMI 1640 medium with 2% or 10% FCS as a HIV-ILAI supernatant infection at 37° C./5% CO2, (20 μl of substance dilution and 80 μl of cells/virus per well) in accordance with the pattern described above for 5 days. Subsequently, 10 μl of AlamarBlue® (Invitrogen, Karlsruhe, Germany) are added to each well, and the MTPs are incubated at 37° C. for 3 hours before the fluorimetric evaluation takes place (544/590 nm). The resulting values are about 40 000 for the untreated uninfected cells and about 7000 for the untreated infected cells. In the low concentration range, the EC50 values of the test substances are determined as the concentration at which the fluorescence is 50% of the untreated uninfected cells (in each case subtracting the values of the untreated infected cells). In addition, in the high concentration range, the CC50 values of the test substances are determined as the concentration at which the fluorescence is 50% of the untreated uninfected cells (in each case subtracting the values of the untreated infected cells).

[4] = test system: HIV-1NL4-3 wt; assay: Light assay with wild-type HI reporter virus in MT4 7F2 cells; type: cell-based; conditions: Human immunodeficiency virus 1, 2% FCS
Protocol: as §1

SMILES | EC50 [1] [nM] | IC50 [2] [nM] | EC50 [3] [nM] | EC50 [4] [nM]
O=C1CN(C(=O)c2cc(-c3cccc(Cl)c3)c(-c3cccc(Cl)c3)o2)CCN1 [Example 30, 4-{[4,5-Bis(3-chlorophenyl)furan-2-yl]carbonyl}piperazin-2-one] | 650 | 750 | 200 | 25
O=C1CN(C(=O)c2cc(-c3cc(F)cc(Cl)c3)c(-c3ccc(F)c(Cl)c3)o2)CN1 [Example 11, 1-{[5-(3-Chloro-4-fluorophenyl)-4-(3-chloro-5-fluorophenyl)furan-2-yl]-carbonyl}imidazolidin-4-one] | 255 | 370 | 77 | 20
N#Cc1cccc(-c2oc(C(=O)N3CCS(=O)(=O)C3)cc2-c2cc(F)cc(Cl)c2)c1 [Example 5, 3-{3-(3-Chloro-5-fluorophenyl)-5-[(1,1-dioxido-1,3-thiazolidin-3-yl)carbonyl]furan-2-yl}benzenecarbonitrile] | 305 | – | 17.5 | < 1.5
COc1cccc(-c2cc(C(=O)N3CCNC(=O)C3)oc2-c2cccc(Cl)c2)c1 [Example 29, 4-{[5-(3-Chlorophenyl)-4-(3-methoxyphenyl)furan-2-yl]carbonyl}piperazin-2-one] | 400 | – | 450 | 53
O=C1CN(C(=O)c2cc(-c3cc(Cl)ccc3F)c(-c3cccc(Cl)c3)o2)CCN1 [Example 13, 4-{[4-(5-Chloro-2-fluorophenyl)-5-(3-chlorophenyl)furan-2-yl]carbonyl}piperazin-2-one] | 325 | – | 160 | 15
O=C1CN(C(=O)c2cc(-c3cccc(Cl)c3)c(-c3ccc(F)c(Cl)c3)o2)CN1 [Example 25, 1-{[5-(3-Chloro-4-fluorophenyl)-4-(3-chlorophenyl)furan-2-yl]carbonyl}imidazolidin-4-one] | 250 | – | 225 | 18
Cc1cc(C)cc(-c2cc(C(=O)N3CCNC(=O)C3)oc2-c2cccc(Cl)c2)c1 [Example 28, 4-{[5-(3-Chlorophenyl)-4-(3,5-dimethylphenyl)furan-2-yl]carbonyl}piperazin-2-one] | 400 | – | 200 | 30
Cc1cccc(-c2oc(C(=O)N3CCNC(=O)C3)cc2-c2cccc(Cl)c2)c1 [Example 18, 4-{[4-(3-Chlorophenyl)-5-(3-methylphenyl)furan-2-yl]carbonyl}piperazin-2-one] | 300 | – | 200 | 45
Cc1cc(-c2oc(C(=O)N3CCNC(=O)C3)cc2-c2cccc(Cl)c2)ccc1F [Example 21, 4-{[4-(3-Chlorophenyl)-5-(4-fluor-3-methylphenyl)furan-2-yl]carbonyl}piperazin-2-one] | 120 | – | 200 | 15
O=C1CN(C(=O)c2cc(-c3cccc(Cl)c3)c(-c3ccc(F)cc3)o2)CCN1 [Example 6, 4-{[4-(3-Chlorophenyl)-5-(4-fluorophenyl)furan-2-yl]carbonyl}piperazin-2-one] | 283 | – | 400 | 48
N#Cc1cc(F)cc(-c2cc(C(=O)N3CCNC(=O)C3)oc2-c2cccc(Cl)c2)c1 [Example 33, 3-{2-(3-Chlorophenyl)-5-[(3-oxopiperazin-1-yl)carbonyl]furan-3-yl}-5-fluorobenzenecarbonitrile] | 200 | – | 25 | < 1.5
O=C1CN(C(=O)c2cc(-c3cccc(Cl)c3)c(-c3ccc(F)c(Cl)c3)o2)CCN1 [Example 22, 4-{[5-(3-Chloro-4-fluorophenyl)-4-(3-chlorophenyl)furan-2-yl]carbonyl}piperazin-2-one] | 185 | – | 113 | 7
O=C1CN(C(=O)c2cc(-c3cc(F)cc(Cl)c3)c(-c3ccc(F)c(Cl)c3)o2)CCN1 [Example 7, 4-{[5-(3-Chloro-4-fluorophenyl)-4-(3-chloro-5-fluorophenyl)furan-2-yl]carbonyl}piperazin-2-one] | 186 | – | 46 | 5

From patent US8324268B2, “Substituted furancarboxamides, and use thereof” (AiCuris GmbH & Co. KG, priority 2008, dated 2012)
